Data from BindingDB's records for doi:10.7270/Q25B012X (Burnham Center For Chemical Genomics, 2012).

Target: Protein Wnt-3a (Mus musculus, UniProt P27467)
Sequence (P27467 whole entry): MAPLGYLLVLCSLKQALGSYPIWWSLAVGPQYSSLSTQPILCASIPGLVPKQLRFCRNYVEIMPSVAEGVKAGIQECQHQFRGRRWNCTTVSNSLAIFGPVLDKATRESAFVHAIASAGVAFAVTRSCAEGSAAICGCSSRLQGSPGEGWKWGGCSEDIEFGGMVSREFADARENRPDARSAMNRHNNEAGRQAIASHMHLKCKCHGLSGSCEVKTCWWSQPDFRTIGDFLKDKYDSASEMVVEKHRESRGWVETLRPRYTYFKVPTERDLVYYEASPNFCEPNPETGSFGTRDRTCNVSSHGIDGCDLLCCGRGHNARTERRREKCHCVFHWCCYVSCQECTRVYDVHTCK

| SMILES | IC50 |
| --- | --- |
| CC(N=Nc1ccc(Cl)nn1)c1ccccc1O (configuration not stated) [MLS001233678] | > 50 µM |
| CC(C)(C)[C@H]1COC(=O)[C@H](NC(=O)OCC2c3ccccc3-c3ccccc32)C/C=C\C[C@@H](CC(=O)N(CCO)Cc2ccccc2)C(=O)N1 [MLS002320431] | > 12.5 µM |
| COc1cc(C(=O)NC2CCN(C)CC2)ccc1Nc1ncc2c(n1)N(CCc1ccccc1)CCC(=O)N2C [MLS002232307] | > 50 µM |
| COc1ccc(CN(C)C(=O)c2cccc(NC(=O)Cc3sc(N4CCCCC4)nc3O)c2)c(OC)c1 [MLS002180955] | 21.7 µM |
| O=C(Nc1ccncc1)c1ccc(-c2ccccc2)cc1 [4-phenyl-N-(4-pyridyl)benzamide] | > 50 µM |
| CC(C)(C)c1ccc(C(=O)NC(=S)Nc2ccc(N3CCOCC3)cc2)cc1 | > 50 µM |
| Brc1ccc(-[n+]2c(-c3ccccc3)cc(-c3ccccc3)cc2-c2ccccc2)cc1 [SMR000841262] | 15.6 µM |
| O=C(Nc1cc2c3c(c1)C1CCCC1CN3CC1CCCC21)c1ccc([N+](=O)[O-])cc1 (configuration not stated) [MLS000324904] | > 12.5 µM |
| Cc1cc(N=NCc2ccc(O)cc2O)nc(-n2nc(C)cc2C)n1 [(4E)-4-[[2-[2-(3,5-dimethylpyrazol-1-yl)-6-methyl-pyrimidin-4-yl]hydrazinyl]methylidene]-3-oxidanyl-cyclohexa-2,5-dien-1-one] | 41.3 µM |
| COCCNC(=O)CSCc1nc(-c2ccc(SC)cc2)oc1C [MLS000089367] | > 50 µM |
| CCCN(CCC)CCNC(=O)c1cc2c(=O)n(C)c3ccccc3c2n1C [MLS000118109] | > 50 µM |
| CCOc1ccc2[nH]c3c(N4CCN(C(=O)c5ccco5)CC4)ncnc3c2c1 [[4-(8-ethoxy-5H-pyrimido[5,4-b]indol-4-yl)-1-piperazinyl]-(2-furanyl)methanone] | > 50 µM |
| Brc1ccc(-c2csc(N3CCCCCC3)n2)cc1 [1-[4-(4-bromophenyl)-1,3-thiazol-2-yl]azepane] | > 12.5 µM |
| CC(=O)c1ccc(-[n+]2cc(-c3ccc(C(C)(C)C)cc3)n3c2SCCC3)cc1 [MLS001018012] | > 50 µM |
| O=C1NC(=Cc2ccc(O)cc2)C(=O)C1=CNCc1ccccc1 [(3Z,5Z)-3-[(benzylamino)methylidene]-5-[(4-hydroxyphenyl)methylidene]pyrrolidine-2,4-dione] | 7.28 µM |
| COc1cccc2nc3c(C(=O)NCCN(C)C)cccc3cc12 | > 50 µM |
| CCOP(=O)(CCP(=O)(OCC)OCC)OCC [MLS002702923] | 11.8 µM |
| CCCCn1c(SCc2c(C)noc2C)nc2cc(S(N)(=O)=O)ccc21 [1-butyl-2-[(3,5-dimethyl-1,2-oxazol-4-yl)methylsulfanyl]benzimidazole-5-sulfonamide] | > 50 µM |
| O=C(NC1CCCC1)c1cc(COc2ccc3ncccc3c2)on1 | > 50 µM |
| Cc1nc2sccn2c1-c1csc(NCc2ccccc2)n1 [4-(6-methyl-5-imidazo[2,1-b]thiazolyl)-N-(phenylmethyl)-2-thiazolamine] | > 50 µM |
| Cc1ccc(C2=C(CC(=O)O)C(=O)CC2)cc1 [2-[2-(4-methylphenyl)-5-oxidanylidene-cyclopenten-1-yl]ethanoic acid] | > 50 µM |
| COc1ccc(C(=O)C[n+]2cc(-c3ccc(OC)cc3)n3c2CCCC3)cc1 [MLS001018126] | > 50 µM |
| Cc1ccc(S(=O)(=O)N2CCN(C(=O)c3ccc(S(=O)(=O)N4CCCC4)cc3)CC2)cc1 [[4-(Pyrrolidine-1-sulfonyl)-phenyl]-[4-(toluene-4-sulfonyl)-piperazin-1-yl]-methanone] | > 50 µM |
| CCn1c(=O)cc(SCC(=O)N2CCN(C3CCCCC3)CC2)c2ccccc21 [MLS000092496] | > 50 µM |
| CCCCCCCOc1ccc(OC(=O)c2cccnc2)cc1 [(4-heptoxyphenyl) pyridine-3-carboxylate] | > 12.5 µM |
| COc1ccc(-c2c[n+](CC(=O)c3ccccc3)c3n2CCCCC3)cc1 [2-[3-(4-methoxyphenyl)-6,7,8,9-tetrahydro-5H-imidazo[1,2-a]azepin-1-ium-1-yl]-1-phenyl-ethanone;bromide] | > 50 µM |

| SMILES | IC50 |
| --- | --- |
| CCOc1ccc(-n2c(O)c(CN=Nc3nc(C)cc(C)n3)c3ccccc3c2=O)cc1 [(4Z)-4-[[(4,6-dimethyl-2-pyrimidinyl)hydrazo]methylidene]-2-(4-ethoxyphenyl)isoquinoline-1,3-dione] | 11.2 µM |
| Clc1ccc(-[n+]2cc(-c3ccc(Br)cc3)n3c2CCCCC3)cc1 [MLS001029582] | > 50 µM |
| Cc1cccc(C)c1N=C(S)N(CCN1CCCCCC1)Cc1ccco1 [1-[2-(1-azepanyl)ethyl]-3-(2,6-dimethylphenyl)-1-(2-furanylmethyl)thiourea] | > 50 µM |
| CC(NC(=O)c1cc2c(=O)n3ccccc3nc2n(CC2CCCO2)c1=N)c1ccccc1 (configuration not stated) [MLS001217747] | > 50 µM |
| C=CCN1C(=O)C(=NNC(=S)Nc2cccc(C)c2)c2ccccc21 [1-(3-methylphenyl)-3-[(Z)-(2-oxidanylidene-1-prop-2-enyl-indol-3-ylidene)amino]thiourea] | 29.2 µM |
| CCn1c(CC=Nc2ccccc2)[n+](CC)c2cc(Cl)c(Cl)cc21 [N-[(E)-2-[5,6-bis(chloranyl)-1,3-diethyl-benzimidazol-3-ium-2-yl]ethenyl]aniline;iodide] | 7.29 µM |
| CC1=CC(C)C2(COC(c3ccc[n+](C)c3)OC2)C(C)C1 (configuration not stated) [MLS000717774] | > 50 µM |
| Cc1nc2ccccc2c2oc(C(=O)N3CCN(C4CCCCC4)CC3)cc12 [(4-cyclohexylpiperazin-1-yl)-(4-methylfuro[3,2-c]quinolin-2-yl)methanone] | > 50 µM |
| O=C(COC(=O)c1ccc2[nH]c3c(c2c1)CCCC3)Nc1ccccc1Cl [[2-[(2-chlorophenyl)amino]-2-oxidanylidene-ethyl] 6,7,8,9-tetrahydro-5H-carbazole-3-carboxylate] | > 50 µM |
| O=C(CCCCCCC(=O)Nc1ccccc1)NO [Zolinza] | > 50 µM |
| CC(=O)N1c2ccc(S(=O)(=O)N3CCC(C(=O)N4CCCCC4)CC3)cc2CC1C (configuration not stated) [1-[2-methyl-5-(4-piperidin-1-ylcarbonylpiperidin-1-yl)sulfonyl-2,3-dihydroindol-1-yl]ethanone] | > 50 µM |
| CC(C)(C)OC(=O)N1CCC(c2cc(-c3cccs3)n[nH]2)CC1 [4-(3-thiophen-2-yl-1H-pyrazol-5-yl)-1-piperidinecarboxylic acid tert-butyl ester] | > 50 µM |
| C[N+]1=C(CC=Nc2ccccc2)C(C)(C)c2ccccc21 [MLS000390698] | > 50 µM |
| O=C(C[n+]1cc(-c2ccccc2)n2c1CCCCC2)c1ccc(Cl)cc1 [1-[2-(4-Chloro-phenyl)-2-oxo-ethyl]-3-phenyl-6,7,8,9-tetrahydro-5H-imidazo[1,2-a]azepin-1-ium] | > 50 µM |
| CCN1C(=O)CCN(C2CCCC2)c2nc(Nc3ccc(C(=O)NC4CCN(C)CC4)cc3OC)ncc21 | > 50 µM |
| CCc1cc(C(=O)NC2CCCN(Cc3ccccc3F)C2)n(C)n1 (configuration not stated) [5-ethyl-N-[1-[(2-fluorophenyl)methyl]piperidin-3-yl]-2-methyl-pyrazole-3-carboxamide] | > 50 µM |
| O=c1c2ccccc2sc2c(CO)ccc(NCCN3CCCCC3)c12 [MLS002702047] | > 50 µM |
| Cc1ccc(-c2csc(NC(=O)c3c(C)noc3C)n2)s1 | > 50 µM |
| CC(C)C(=O)N1CCN(c2ccccc2NC(=O)COc2ccccc2)CC1 [N-[2-[4-(2-methyl-1-oxopropyl)-1-piperazinyl]phenyl]-2-phenoxyacetamide] | > 50 µM |
| CN(C)CCn1c2ccccc2c2nc3ccc([N+](=O)[O-])cc3cc21 [N,N-dimethyl-2-(2-nitro-10-indolo[3,2-b]quinolinyl)ethanamine] | > 50 µM |
| COc1cc2c(c(OC)c1OC)-c1ccc(N(C)CC(OC)OC)c(=O)cc1[C@@H](NC(C)=O)CC2 [SMR000540275] | > 50 µM |
| CCCCCCCOc1ccc(OC(=O)c2ccncc2)cc1 [(4-heptoxyphenyl) pyridine-4-carboxylate] | > 12.5 µM |
| O=C(Nc1cc(N2CCCCC2)ncn1)c1ccccc1 [N-[6-(1-piperidinyl)-4-pyrimidinyl]benzamide] | > 50 µM |
| Cc1ccc(O)c(NC(=O)COc2cc(C)ccc2C)c1 [2-(2,5-dimethylphenoxy)-N-(2-hydroxy-5-methylphenyl)acetamide] | > 50 µM |
| COc1cc(C(=O)NC2CCN(C)CC2)ccc1Nc1ncc2c(n1)N(Cc1ccccc1)CCC(=O)N2C [3-methoxy-4-[[5-methyl-6-oxo-9-(phenylmethyl)-7,8-dihydropyrimido[4,5-b][1,4]diazepin-2-yl]amino]-N-(1-methyl-4-piperidinyl)benzamide] | > 50 µM |

The remaining lines, values ahead:

| IC50 | SMILES |
| --- | --- |
| > 50 µM | O=C(Cc1csc(Nc2[nH]c(=S)nc3ccccc23)n1)NCCCN1CCN(c2ccccc2F)CC1 [SMR000310923] |
| > 50 µM | CC(C)(C)C1CCC(OC(=O)C[N+]2(C)CCCCC2)CC1 (configuration not stated) [SMR000306329] |
| > 50 µM | CCOc1ccc(-c2nc(CSCC(=O)NCC3CCCO3)c(C)o2)cc1 (configuration not stated) [SMR000635237] |
| > 50 µM | C[n+]1c2n(c3ccccc31)N=C(c1ccccc1)CS2 [SMR000176360] |
| > 50 µM | CCOc1ccc(-c2nc(CSCC(=O)NC3CC3)c(C)o2)cc1 [SMR000635235] |
| > 50 µM | O=C(Cn1c(-c2ccccc2)c[n+]2ccsc12)c1ccc(Br)cc1 [SMR000354292] |
| > 50 µM | CCCCCCCNC1=CC(=O)CC(c2ccccc2)C1 (configuration not stated) [SMR000203844] |
| > 50 µM | CCCc1nc(SCC(=O)Nc2nnc(CC)s2)c2c(=O)n(C)c(=O)n(C)c2n1 [SMR000806028] |
| 13.3 µM | CCc1ccccc1NC(=S)NN=C1C(=O)N(C)c2ccc(S(=O)(=O)N3CCOCC3)cc21 [SMR000207996] |
| > 50 µM | CCC(=O)c1ccc(OCC(O)Cn2c(C)nc3ccccc32)cc1 (configuration not stated) [SMR000075355] |
| > 50 µM | COc1cc(C(=O)NC2CCN(C)CC2)ccc1Nc1ncc2c(n1)N(C1CCCCC1)CCC(=O)N2C [SMR001307858] |
| 26.3 µM | CCn1c(CC=Nc2ccccc2)[n+](CC)c2ccc(Cl)cc21 [SMR000173759] |
| > 50 µM | Cc1ccc(C)c(-c2csc(NC(=O)C3=COCCO3)n2)c1 [SMR000713303] |
| > 50 µM | CC(=O)c1c(C)[nH]c(C(=O)OCC(=O)Nc2sc3c(c2C#N)CCCC3)c1C [SMR000249195] |
| > 50 µM | COc1ccc(Nc2nc(N3CCOCC3)nc(N3CCOCC3)n2)c(OC)c1 [SMR000515822] |
| > 12.5 µM | Clc1ccc(-c2c[n+](Cc3ccc(Cl)cc3Cl)c3n2CCCCC3)cc1 [SMR000420192] |
